Test results taken from US9938316B2, “Selective inhibitors of α2 isoform of Na,K-ATPase and use thereof for reduction of intra-ocular pressure and as cardiotonic agents” (priority 2013, dated 2018).

Columns and labels:
[1] = system: cornea of rabbits; test: Pachymetry: corneal thickness and local toxicity after topical cardiac glycosides; type: in vivo, New Zealand white rabbits; settings: rabbit, in vivo
Method: Thus, in this study, no change in corneal thickness was detected (Table 3), indicative of lack of local toxic effects. […] Similar results were obtained with CG's applied after IB-MECA.
IOP (mm Hg) of rabbits was measured using a calibrated Pneumatonometer (Model 30, Reichert technologies, FIG. 1). A local anesthetic Oxybuprocaine HCl (0.4%, 25 μl) was applied to each cornea about a minute before IOP measurements. Two baseline IOP readings were taken before topical administration of the CG (or PBS as control) and after half an hour (Zero time). […] At zero time one drop of 4AP (40 mg/ml, 30 μl) or IB-MECA (1 μM, 30 μl) was administered to both eyes of each rabbit IOP measurements were made at different times as indicated in each experiment. In the experiments for which the IOP was elevated for several hours, 4AP was added every 1.5 hours or IB-MECA every 2 hours. […] Each experiment was repeated two or three times with similar results. In all cases the figures depict the average effect on IOP (i.e for four or six eyes) compared to control ±SEM. Where error bars are not seen in the figures, the errors are smaller than the symbols used. Significance of differences from the control was calculated by the unpaired Students t-test (p values), p values <0.05 were considered significant. Corneal thickness (μm) was measured using an ultrasonic pachymeter (Sonogage pachometer, Cleveland, USA), before and during the experiment with CG and 4AP treatments. The values represent averages of three independent measurements for each eye.

[2] = system: purified α2β1FXYD1 complexes of Na,K-ATPase; test: Dissociation of cardiac glycosides from the α2β1 isoform complex
Method: Since the principal isoform in NPE cells is α2 and dissociation from the pump is expected to affect the duration of the effects on IOP, the dissociation rates of different cardiac glycosides from the purified α2β1 isoform were compared.
Purified α2β1FXYD1 complexes (0.3-0.5 mg/ml) were incubated for 30 minutes at 37° C. in a medium containing ATP, 1 mM; NaCl 100 mM; MgCl2, 4 mM Histidine.HCl 25 mM pH 7.4 without (Control) or with 1 μM of different cardiac glycosides. The enzyme solutions were then diluted 100-fold into a medium containing 100 mM NaCl, 5 mM KCl, 1 mM EDTA (Tris), 0.005 mg/ml C12E8, 0.01 mg/ml SOPS, and 0.001 mg/ml cholesterol and incubated at 37° C. for different lengths of time. Aliquots were removed at different times and Na,K-ATPase activity was measured in triplicate over 0.5 minutes (digoxigenin) or 2 minutes (other cardiac glycosides) in the standard activity medium containing 200 μM ATP. The activity of test samples was divided by the activity of the control samples and the time-course for reversal of inhibition was analyzed by fitting the data to the function vt=v∞e^−kt+c. Normalized curves for comparison of different experiments (e.g. as in FIG. 9) were obtained by subtracting the constant value c from each value of the activity and re-fitting the ratio vt/v∞=1−e^−kt.

[3] = system: intra-ocular pressure (IOP) of rabbits; test: 4-aminopyridine (4AP)-induced ocular hypertension in rabbits; type: in vivo, New Zealand white rabbits; settings: for Effect on 4AP-induced rise in IOP: 1 drop topically 30 minutes prior to 4AP
Method: Intra-ocular pressure in rabbits was measured using of a “Reichert Model 30™ Pneumatonometer” after anesthetizing the cornea with local anesthetic.
Since the IOP reflects a balance of the inflow and outflow of aqueous humour, reduction of the increased 4AP-induced inflow of aqueous humour by cardiac glycosides should prevent the increase in IOP. Thus, the standard experimental design to test effects of cardiac glycosides involved topical application of the compounds (1 drop in each eye) 30 minutes prior to application of 4AP and measurement of IOP every 30 minutes over five hours. […] Each experiment was done three times, but the figures depict a representative experiment using a different rabbit for each concentration of the cardiac glycoside.
DGlyN or DMe (0.1 or 1 mM) were applied one hour after the first application of 4AP, which was added every two hours.
New Zealand white rabbits (3-3.5 kg) about 1 year old, of either sex, were housed individually in separate cages in animal room conditions on a reversed, 12-hour dark/light cycle. For the experiments the animals were transferred to rabbit restrainers in a quiet and calm atmosphere (FIG. 1). […] Animal care and treatment were subject to the approval of the institutional committee for animal experiments, Weizmann Institute IACUC permission (no 04270911-2).
IOP (mm Hg) of rabbits was measured using a calibrated Pneumatonometer (Model 30, Reichert technologies, FIG. 1). A local anesthetic Oxybuprocaine HCl (0.4%, 25 μl) was applied to each cornea about a minute before IOP measurements. Two baseline IOP readings were taken before topical administration of the CG (or PBS as control) and after half an hour (Zero time). […] At zero time one drop of 4AP (40 mg/ml, 30 μl) or IB-MECA (1 μM, 30 μl) was administered to both eyes of each rabbit IOP measurements were made at different times as indicated in each experiment. In the experiments for which the IOP was elevated for several hours, 4AP was added every […] or IB-MECA every 2 hours. […] In all cases the figures depict the average effect on IOP (i.e for four or six eyes) compared to control ±SEM. […] Significance of differences from the control was calculated by the unpaired Students t-test (p values), p values <0.05 were considered significant. Corneal thickness (μm) was measured using an ultrasonic pachymeter (Sonogage pachometer, Cleveland, USA), before and during the experiment with CG and 4AP treatments. The values represent averages of three independent measurements for each eye.

[4] = system: Na,K-ATPase isoforms (α1β1, α2β1, α3β1); settings: membranes; cited from earlier work

| SMILES | Redness or local irritation in conjunctiva or cornea [1] | t1/2 ± SEM (dissociation) [2] | k ± SEM (rate of dissociation) ([2]; α2β1 isoform complex, 37° C.) | Effect on 4AP-induced rise in IOP ([3]; 0.25 mM) | Effect on 4AP-induced rise in IOP ([3]; 1 mM) | Time IOP is maintained at the low level ([3]; 1 mM, single drop, 4AP every two hours) | Isoform selectivity of KD (in words) [4] |
| --- | --- | --- | --- | --- | --- | --- | --- |
| C[C@H]1O[C@@H](O[C@H]2[C@@H](O)C[C@H](O[C@H]3[C@@H](O)C[C@H](O[C@H]4CC[C@@]5(C)[C@H](CC[C@@H]6[C@@H]5C[C@@H](O)[C@]5(C)[C@@H](C7=CC(=O)OC7)CC[C@]65O)C4)O[C@@H]3C)O[C@@H]2C)C[C@H](O)[C@@H]1O [Digoxin, digoxin, reference compound] | neither redness nor local irritation were observed | 47.5 ± 5.05 min | 0.015 ± 0.001, 4 min^−1 | poorly effective | able to prevent the 4AP-induced rise in IOP | 1 h |  |
| C[C@]12CC[C@H](O)C[C@H]1CC[C@@H]1[C@@H]2CC[C@]2(C)[C@@H](C3=CC(=O)OC3)CC[C@]12O [digitoxgenin] |  |  |  |  |  |  | no isoform selectivity |
